The record followed here is patent publication US4134980A, “Phenylalkylamino-alkyl derivatives of quinazolinone and phthalazinone” (Boehringer Ingelheim GmbH, priority 1976, dated 1979).

Counter-ions that a name gives are not always drawn. A value given as a limit tells only on which side of the number the result lay.

Series [1] is described as follows: LD50 in mice, observation time of 14 days. The following applies: mouse, in vivo, iv, observation time of 14 days. An excerpt: Additionally, it should be noted that at all dosage levels the test compounds were tolerated very well and produced no toxic side-effects.
In series [2] the test system is heart rate. Put plainly: Effect on heart rate in anesthetized dogs (Table II). The series is classed as in vivo.
For series [3], the system named is heart rate. Put plainly: Effect on heart rate in anesthetized cats (Table I). The series is classed as in vivo.

As for `COc1ccc(CCN(C)CCCn2nc(C)c3cc(OC)c(OC)cc3c2=O)cc1OC.Cl` [A, 1-[4-methyl-6,7-dimethoxy-1(2H)-phthalazinone-2-yl]-3-[N-methyl-N-(2-(3,4-dimethoxyphenyl)-ethyl)-amino]-propane hydrochloride], the median lethal dose (LD50) at 336 h in series [1] was 63 mg/kg. In addition, the “Decrease in heart rate” value in the series with heart rate [2] (0.25 mg/kg i.v.) was -10 beats/minute; in the series with heart rate [2] (0.5 mg/kg i.v.) it was -12 beats/minute; in the series on heart rate [2] (1.0 mg/kg i.v.), -16 beats/minute; in the series on heart rate [3] (0.5 mg/kg i.v.), -16 beats/minute; in the series with heart rate [3] (1.0 mg/kg i.v.), -23 beats/minute; with heart rate [3] (2.0 mg/kg i.d.) it was -25 beats/minute. The “Decrease in heart rate” value is given as -37 beats/minute in the series with heart rate [3] (2.0 mg/kg i.v.), -34 beats/minute in the series on heart rate [3] (4.0 mg/kg i.d.) and -41 beats/minute with heart rate [3] (10.0 mg/kg i.d.). Further, the “Duration of Effective action” value in the series with heart rate [2] (0.25 mg/kg i.v.) is 17 min; with heart rate [2] (0.5 mg/kg i.v.), 15 min; in the series with heart rate [2] (1.0 mg/kg i.v.), 24 min; in the series with heart rate [3] (0.5 mg/kg i.v.), greater than 50 min; with heart rate [3] (1.0 mg/kg i.v.), greater than 70 min; in the series with heart rate [3] (2.0 mg/kg i.d.), greater than 74 min. Moreover, the figures for the “Duration of Effective action” value with heart rate [3] (2.0 mg/kg i.v.), in the series on heart rate [3] (4.0 mg/kg i.d.) and in the series on heart rate [3] (10.0 mg/kg i.d.) were greater than 70 min, greater than 60 min and greater than 50 min, respectively.

Regarding `COc1ccc(CCN(C)CCCn2ncc3cc(OC)c(OC)cc3c2=O)cc1.Cl` [D, 1-[6,7-dimethoxy-1(2H)-phthalazinone-2-yl]-3-[N-methyl-N-(2-(4-methoxyphenyl)-ethyl)-amino]-propane hydrochloride], the “Decrease in heart rate” value is reported as -6 beats/minute in the series on heart rate [3] (0.5 mg/kg i.v.), -13 beats/minute in the series on heart rate [3] (1.0 mg/kg i.v.) and -14 beats/minute in the series with heart rate [3] (2.0 mg/kg i.v.). Further, the “Duration of Effective action” value turned out to be 10 min in the series on heart rate [3] (0.5 mg/kg i.v.), 25 min in the series on heart rate [3] (1.0 mg/kg i.v.) and 25 min in the series with heart rate [3] (2.0 mg/kg i.v.).

`COc1ccc(CCN(C)CCCn2nc(C)c3cc(OC)c(OC)cc3c2=O)cc1.Cl` [B, 1-[4-methyl-6,7-dimethoxy-1(2H)-phthalazinone-2-yl]-3-[N-methyl-N-(2-(4-methoxyphenyl)-ethyl)-amino]-propane hydrochloride]: in the series with heart rate [2] (0.25 mg/kg i.v.), the “Decrease in heart rate” value is on record as -6 beats/minute and the “Duration of Effective action” value came out at 24 min. In the series with heart rate [2] (1.0 mg/kg i.v.), the “Decrease in heart rate” value was -23 beats/minute and the “Duration of Effective action” value was 46 min.

On to `COc1ccc(CCN(C)CCCn2nc(C(C)C)c3cc(OC)c(OC)cc3c2=O)cc1OC` [C, 1-[4-isopropyl-6,7-dimethoxy-1(2H)-phthalizinone-2-yl]-3-[N-methyl-N-(2-(3,4-dimethoxyphenyl)-ethyl)-amino]-propane hydrochloride], for which, in the series on heart rate [2] (1.0 mg/kg i.v.), the “Decrease in heart rate” value is reported as -10 beats/minute and the “Duration of Effective action” value came out at 17 min. Also, in the series on heart rate [2] (2.0 mg/kg i.v.), the “Decrease in heart rate” value is on record as -29 beats/minute and the “Duration of Effective action” value came out at 10 min.

As for `COc1ccc(CCN(C)CCn2nc(C)c3cc(OC)c(OC)cc3c2=O)cc1OC` [E, 1-[4-methyl-6,7-dimethoxy-1(2H)-phthalizinone-2-yl]-3-[N-methyl-N-(2-(3,4-dimethoxyphenyl)-ethyl)-amino]-ethane hydrochloride], in the series on heart rate [3] (1.0 mg/kg i.v.), the “Decrease in heart rate” value is recorded as -10 beats/minute and the “Duration of Effective action” value worked out at 9 min. Also, in the series on heart rate [3] (2.0 mg/kg i.v.), the “Decrease in heart rate” value is on record as -13 beats/minute and the “Duration of Effective action” value worked out at 10 min.

Usually LD50 stands for the dose at which mortality reaches 50%. Read a high LD50 as lower toxicity.
